The results in this text go back to PubChem BioAssay AID504322 (Emory University Molecular Libraries Screening Center, 2011).

pIC50: −log10 of the molar value. Calls of active or inactive are those of the source. The rule behind the calls is not given here.

The subject of the assay is CHOP reporter cell assay, percent of control. Description: CHOP reporter inhibitor potency, dose response, cell-based (AID 504322).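 Note: CHO cells carrying a CHOP reporter stimulated with tunicamycin to induce ER stress; potency is for inhibition of the stress-induced reporter signal.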
On to `CCN(CC)CCn1c(SCC(=O)Nc2ccc(F)cc2)nc2c(sc3ccccc32)c1=O`, for which the IC50 was > 10 µM (inactive).
As to `O=C(CNC1CCCCCC1)Nc1ccccc1N1CCCCC1`, the IC50 was 7.73 µM (inactive).
On the same count and under the same terms, next, `CC(C)(C)c1ccc(C(O)CCCN2CCC(C(O)(c3ccccc3)c3ccccc3)CC2)cc1` (centres undefined): 4.12 µM (inactive); `CCCc1cc(-c2nc(N)ncc2-c2ccc3c(c2)OCCCO3)c(O)cc1OC`: 8.02 µM (inactive); `CC(/C=N/n1c(C2CCCCC2)n[nH]c1=S)=C\c1ccccc1`: 5.88 µM (inactive).
`NS(=O)(=O)c1ccc(N/N=C2/CCCCC2C2CCCCC2)c([N+](=O)[O-])c1` (centres undefined): the IC50 is 5.37 µM (inactive).
Still for that read-out and setting: to `Cc1ccc2sc(N(CCCN(C)C)C(=O)c3nc4ccccc4s3)nc2c1C` belongs 9.48 µM (inactive).
Turning to `COc1oc(-c2ccc(Cl)cc2)nc1C(F)(F)F`, the pIC50 was 5.89.
Take `COc1cc(CNCc2ccccn2)ccc1OCc1ccc(Cl)cc1Cl`: the IC50 is 6.74 µM (inactive).
Same read-out and setting: next, `CN(CCCC[C@H](CNCc1ccc(-c2ccccc2)cc1)N1C[C@H](c2ccccc2)N(CCc2ccc(Cl)c(Cl)c2)C(=O)C1=O)Cc1ccc(-c2ccccc2)cc1`: 9.37 µM (inactive); `O=C(Nc1ccc(Br)c(C(F)(F)F)c1)c1ccc(C(F)(F)F)cc1`: 9.82 µM (inactive).
As for `COc1ccc(C(=O)/C=C/C(=O)N(CC(=O)NCCC(C)C)Cc2cccs2)c(O)c1`, the IC50 is 9.55 µM (inactive).
Same read-out and setting: next, `CCOC(=O)N1CCC(n2c(=S)[nH]c3cc(OCC)c(OCC)cc3c2=O)CC1`: 4.35 µM (inactive); `CC1CCC(n2c(=S)[nH]c3ccccc3c2=O)CC1` (centres undefined): > 10 µM (inactive).
Consider `CN(C)c1ccc(-c2nc3ccccn3c2/N=C/c2ccc(Br)cc2)cc1`, for which the pIC50 was 5.15.
`COC(=O)c1ccccc1NC1=C/C(=N\S(=O)(=O)c2cccs2)c2ccccc2C1=O`: the IC50 was > 10 µM (inactive).
For the compound `CCCc1nc2oc(C(=O)c3ccccc3)c(N)c2c2c1COC(C)(C)C2`, the IC50 is > 10 µM (inactive).
For `OC(c1cccc(OCc2ccccc2)c1)c1nnc(-c2ccccc2)o1` (centres undefined), the IC50 is > 10 µM (inactive).
On to `COc1ccc(/C=C2\SC(=S)N(CCCC(=O)Nc3ccc(O)cc3)C2=O)cc1`, for which the pIC50 is more than 6.80.
As to `COC(=O)c1ccc2c(c1)C(C)(C)C(/C=C/c1ccc(OC)c(OC)c1OC)=[N+]2C`, the IC50 is 9.48 µM (inactive).
The same measure, in the same setting: to `Cc1cc(C)c2c(c1)/C(=N/NS(=O)(=O)c1ccc(Br)cc1)CCC2` belongs 9.49 µM (inactive).
On the same count and under the same terms, to `Cc1cc(/C=N/n2cnnc2)c(C)n1-c1ccc(OCc2ccc(F)cc2)cc1` belongs 0.67 µM (inactive).
Turning to `COc1ccc(-c2cc(C3CCN(Cc4cccc(C(F)(F)F)c4)CC3)[nH]n2)cc1`, the IC50 is 4.11 µM (inactive).
For the compound `CCCCn1c(NS(=O)(=O)c2ccccc2)c(S(=O)(=O)c2ccc(C)cc2)c2nc3ccccc3nc21`, the IC50 was 9.67 µM (inactive).
The same measure, in the same setting: next, `CCN(CC)S(=O)(=O)c1cccc(NC(=O)Nc2cccc(C(F)(F)F)c2)c1`: 8.55 µM (inactive); `CCOC(=O)CN1C(c2ccc(O)cc2)Nc2ccc(Br)cc2C1c1ccccc1` (centres undefined): 9.53 µM (inactive).
Still for that read-out and setting: next, `CCOC(=O)c1c(N)sc(C(O)(C(F)(F)F)C(F)(F)F)c1-c1ccc(Cl)cc1`: 9.37 µM (inactive).
On to `COc1cccc(-c2nnc(NC(=O)c3ccc(S(=O)(=O)N(CC(C)C)CC(C)C)cc3)o2)c1`, for which the pIC50 was 5.38.
In the case of `COC(=O)C(Nc1ccccc1Cl)(c1cc(C)c(O)c(C)c1)C(F)(F)F` (centres undefined), the IC50 was 9.66 µM (inactive).
Same read-out and setting: next, `CC(C)C[C@H](NC(=O)c1nc[nH]c1C(=O)NCC(=O)OC(C)(C)C)C(=O)OCc1ccccc1`: > 10 µM (inactive).
For the compound `O=C(Nc1ccc(C(F)(F)F)cc1)c1cc(-c2cccnc2)nc2ccc(Br)cc12`, the pIC50 is 5.44.
On to `Oc1ccc(/C=N/Nc2nc(N3CCCCCC3)nc(N3CCCCCC3)n2)c(O)c1`, for which the IC50 is 9.82 µM (inactive).
As for `O=C(CN1C(=O)c2ccccc2S1(=O)=O)c1ccc2c(c1)OCCCO2`, the IC50 is 0.34 µM (inactive).
Turning to `Cc1cccc(NC2=C/C(=N/S(=O)(=O)c3cccs3)c3ccccc3C2=O)c1`, the pIC50 is 5.35.
On to `CCCCn1c(NS(=O)(=O)c2ccc(C)cc2)c(S(=O)(=O)c2ccccc2)c2nc3ccccc3nc21`, for which the IC50 was > 10 µM (inactive).
In the case of `C/C(=N\N=C1\NC(=O)C(CC(=O)Nc2ccc(C)c(Cl)c2)S1)C(C)(C)C` (centres undefined), the IC50 was 9.43 µM (inactive).
On the same count and under the same terms, next, `CC(C)(C)c1ccc(Oc2ccc(N)cc2)cc1`: < 0.16 µM (inactive); `CC(C)c1nnc(NC(=O)c2c(O)c3cccc4c3n(c2=O)CCC4)s1`: 4.99 µM (inactive); `C=CCSc1n[nH]c(-c2ccc(OCCCC)cc2)n1`: > 10 µM (inactive).
For `CC1(c2ccccc2)CC(C)(C)N2C(=O)/C(=C3\SC(=S)NC3=O)c3cccc1c32` (centres undefined), the IC50 is 6.98 µM (inactive).
On the same count and under the same terms, to `Cc1cc(C)n(-c2nc(N(c3ccccc3)c3ccccc3)nc(-n3nc(C)cc3C)n2)n1` belongs 9.34 µM (inactive).
In the case of `CC(=O)/C=C/n1c(=S)oc2ccccc21`, the pIC50 is 5.33.
With `Cc1ccc2[nH]c3c(c2c1)CN(C(=O)CN1CCN(c2cccc(C)c2C)CC1)CC3`, the IC50 was 8.33 µM (inactive).
`C=CCn1c(C)cc(C2=NNC(=NCC)SC2)c1C`: the negative logarithm of the IC50 (pIC50) is more than 6.80.
For the compound `O=S(=O)(/C(=C/c1ccc(C(F)(F)F)cc1)c1nc2ccccc2[nH]1)c1ccccc1`, the IC50 was 5.46 µM (inactive).
Take `O=S(=O)(C/C(=C/CO)S(=O)(=O)c1ccccc1)c1ccccc1`: the IC50 is > 10 µM (inactive).
For `CCOc1ccc(/C=N/NC(=O)c2cc(-c3ccco3)nc3ccccc23)cc1`, the IC50 is 5.15 µM (inactive).
Same read-out and setting: next, `O=c1c2ccccc2nc2n1CCN2Cc1ccc(Cl)cc1`: 9.8 µM (inactive).
On the same count and under the same terms, next, `Oc1ccc(Oc2ccc3c(C(F)(F)F)cc(C(F)(F)F)nc3n2)cc1`: 9.36 µM (inactive); `O=C(CCl)Nc1cccc(-c2cnc3ccccc3n2)c1`: 6.64 µM (inactive).
For `CC1=C/C(=N\OS(=O)(=O)c2ccccc2)C=CC1=O`, the pIC50 is 5.84.
Take `CC(C)(C)c1ccc(O)c(N=Cc2cc(Br)ccc2O)c1`: the IC50 is 9.15 µM (inactive).
`O=C(c1ccco1)N1CCN(c2c(-c3ccccc3)c3cc(Cl)ccc3[nH]c2=O)CC1`: the IC50 was 5.65 µM (inactive).
With `O=C(CCl)N(Cc1cccc([N+](=O)[O-])c1)c1cccc(Cl)c1`, the IC50 is 9.39 µM (inactive).
Still for that read-out and setting: next, `CCCCC(CC)Cn1c2nc3ccccc3nc2c2c(=N)oc(C)nc21` (centres undefined): 7.13 µM (inactive).
Consider `O=C(/C=C/c1ccccc1)Nc1cccc(C(=O)O)c1`, for which the IC50 was 3.59 µM (inactive).
For `COc1cc(/C=C(/C#N)c2nc3ccccc3[nH]2)ccc1OCC(=O)Nc1ccccc1C(C)C`, the pIC50 was 5.34.
For `O=C(Nc1ccc(C(O)(C(F)(F)F)C(F)(F)F)cc1)c1ccc(Cl)c([N+](=O)[O-])c1`, the IC50 is 4.58 µM (inactive).
Still for that read-out and setting: next, `COc1ccc(C(CCNCc2ccc(F)cc2)c2ccc(F)cc2)cc1` (centres undefined): 9.74 µM (inactive).
On the same count and under the same terms, next, `CCOc1cc(S(=O)(=O)Nc2cc(C)cc(C)c2)ccc1Cl`: 9.51 µM (inactive).
For the compound `O=c1[nH]c(=O)n(Cc2ccco2)c2c1C(C(F)(F)F)(C(F)(F)F)N=C(c1ccc(F)cc1)N2`, the IC50 was 6.5 µM (inactive).
For the compound `FC(F)(F)c1cccc(CN2CCC(c3cc(-c4cccs4)n[nH]3)CC2)c1`, the IC50 is 9.4 µM (inactive).
Regarding `CN1C2CCC1/C(=C/c1ccccn1)C(=O)/C2=C\c1ccccn1`, the pIC50 was 5.69.
Take `N=c1n(Cc2ccccc2)c2ccccc2n1CC(O)COc1ccc(Cl)cc1Cl` (centres undefined): the IC50 is 6.92 µM (inactive).
Same read-out and setting: next, `CCOc1cc(/C=N\NC(=O)Cc2ccccc2)ccc1OCC(=O)Nc1ccc(C)c(C)c1`: 6.38 µM (inactive).
`O=C1C(C2=NC(c3ccccn3)C3C(=O)N(c4ccc(OC(F)(F)F)cc4)C(=O)C23)=C(O)c2ccccc21` (centres undefined): the pIC50 is 5.34.
Still for that read-out and setting: to `C=C(C)COc1ccc(-c2[nH]ncc2Oc2ccccc2OCC)c(O)c1` belongs 5.71.
With `CC(C)=CCCC1(C)C=Cc2c(c(C)cc3c2[nH]c2cc(O)ccc23)O1` (centres undefined), the IC50 is 6.04 µM (inactive).
Turning to `CCSc1nc2ccccc2n1C(=O)/C=C/c1ccc(OC)c(OC)c1`, the pIC50 was 5.30.
With `Cc1ccc(Cn2c(SCC(=O)Nc3cc(C)on3)nc3ccccc3c2=O)cc1`, the IC50 was 5.78 µM (inactive).
Turning to `Cc1ccc(-n2c(Cl)c(Cl)nc(Cl)c2=O)cc1`, the pIC50 was 5.98.
In the case of `CCOC(=O)c1cnc(-n2nc(C)cc2C)nc1NC1CCCCC1`, the IC50 was > 10 µM (inactive).
Take `O=C(Cc1ccccc1)NC(=S)Nc1cccc(C(F)(F)F)c1`: the IC50 was 3.61 µM (inactive).
Same read-out and setting: to `CCn1c(C)nc2cc(-c3nnc(-c4c(-c5ccccc5)noc4C)o3)ccc21` belongs 8.88 µM (inactive).
On to `CSc1nc(-c2ccccc2)nc(C(Cl)Cl)n1`, for which the pIC50 is 5.29.
As for `Cc1nc(COC(=O)c2cc(O)c3ccccc3c2O)cs1`, the IC50 was > 10 µM (inactive).
Turning to `CCOc1cc(S(=O)(=O)Nc2ccc(CC)cc2)ccc1Cl`, the IC50 was 4.48 µM (inactive).
On the same count and under the same terms, next, `Cc1cccc(N2CCN(C(=O)c3c(C)nn(Cc4ccccc4Cl)c3C)CC2)c1C`: 9.26 µM (inactive); `O=S(=O)(Nc1ccccc1)c1ccc(Oc2ncc(C(F)(F)F)cc2Cl)cc1`: > 10 µM (inactive); `CC1(c2ccccc2)CC(C)(C)N2C(=O)C3(C(C#N)=C(N)Oc4cc(O)ccc43)c3cccc1c32` (centres undefined): 5.48 µM (inactive).
The same measure, in the same setting: next, `CSC(SC)=C(C#N)C(=O)c1ccccc1`: > 10 µM (inactive).
`CCCOC(=O)c1ccc(Oc2c(-c3ccc(OCC)cc3O)n[nH]c2C)cc1`: the pIC50 was 5.63.
`O=C(Nc1cc(Cl)ccc1O)c1cc2n(n1)C(C(F)(F)F)CC(c1ccc3c(c1)OCO3)N2` (centres undefined): the pIC50 is 5.71.
With `COc1cc2c(cc1OC)C(c1ccccc1)N(C(=O)CCl)CC2` (centres undefined), the IC50 is 9.53 µM (inactive).
